Measurements: the NIST ThermoML archive (doi:10.1021/je100472t)

Assay: xn = mol fraction of the nth substance listed
Conditions: 101 kPa, Liquid; for speed of sound: Pulse-echo method; for mass density: Vibrating tube method

c1ccncc1 [pyridine] + CCC(C)=O
Conditions | mass density [kg/m3] | speed of sound [m/s]
293.15 K, x2 = 0.0584 | 972.18 | 1424.6
293.15 K, x2 = 0.101 | 964.232 | 1415.8
293.15 K, x2 = 0.1557 | 954.114 | 1404.3
293.15 K, x2 = 0.2073 | 944.625 | 1393.3
293.15 K, x2 = 0.2479 | 937.177 | 1384.6
293.15 K, x2 = 0.2928 | 929.036 | 1374.9
293.15 K, x2 = 0.3534 | 918.142 | 1361.8
293.15 K, x2 = 0.3992 | 909.88 | 1351.6
293.15 K, x2 = 0.4535 | 900.169 | 1339.5
293.15 K, x2 = 0.4962 | 892.606 | 1330
293.15 K, x2 = 0.5461 | 883.748 | 1318.7
293.15 K, x2 = 0.5481 | 883.417 | 1318.2
293.15 K, x2 = 0.6003 | 874.227 | 1306.4
293.15 K, x2 = 0.6425 | 866.814 | 1296.7
293.15 K, x2 = 0.6948 | 857.663 | 1284.5
293.15 K, x2 = 0.7267 | 852.119 | 1277.1
293.15 K, x2 = 0.7519 | 847.742 | 1271.2
293.15 K, x2 = 0.8053 | 838.532 | 1258.7
293.15 K, x2 = 0.855 | 829.934 | 1246.9
293.15 K, x2 = 0.8907 | 823.832 | 1238.4
293.15 K, x2 = 0.9459 | 814.255 | 1224.9
298.15 K, x2 = 0.0517 | 968.413 | 1405.7
298.15 K, x2 = 0.1009 | 959.234 | 1395.4
298.15 K, x2 = 0.151 | 949.923 | 1384.8
298.15 K, x2 = 0.1952 | 941.811 | 1375.4
298.15 K, x2 = 0.2473 | 932.304 | 1364.2
298.15 K, x2 = 0.301 | 922.495 | 1352.5
298.15 K, x2 = 0.3559 | 912.585 | 1340.4
298.15 K, x2 = 0.4041 | 903.885 | 1329.7
298.15 K, x2 = 0.4494 | 895.816 | 1319.6
298.15 K, x2 = 0.4994 | 886.914 | 1308.4
298.15 K, x2 = 0.5472 | 878.48 | 1297.6
298.15 K, x2 = 0.5916 | 870.664 | 1287.4
298.15 K, x2 = 0.6951 | 852.55 | 1263.5
298.15 K, x2 = 0.7563 | 841.861 | 1249.2
298.15 K, x2 = 0.8029 | 833.777 | 1238.1
298.15 K, x2 = 0.8525 | 825.199 | 1226.2
298.15 K, x2 = 0.8944 | 817.974 | 1216.2
298.15 K, x2 = 0.9525 | 808.018 | 1202.3
303.15 K, x2 = 0.0589 | 962.089 | 1384.7
303.15 K, x2 = 0.117 | 951.238 | 1372.5
303.15 K, x2 = 0.162 | 942.929 | 1362.9
303.15 K, x2 = 0.2056 | 934.925 | 1353.6
303.15 K, x2 = 0.2489 | 926.99 | 1344.2
303.15 K, x2 = 0.3075 | 916.353 | 1331.5
303.15 K, x2 = 0.3506 | 908.572 | 1322
303.15 K, x2 = 0.4016 | 899.409 | 1310.8
303.15 K, x2 = 0.4494 | 890.804 | 1300
303.15 K, x2 = 0.4959 | 882.52 | 1289.5
303.15 K, x2 = 0.5482 | 873.285 | 1277.7
303.15 K, x2 = 0.5967 | 864.734 | 1266.6
303.15 K, x2 = 0.6484 | 855.625 | 1254.6
303.15 K, x2 = 0.6972 | 847.054 | 1243.1
303.15 K, x2 = 0.7446 | 838.804 | 1232.1
303.15 K, x2 = 0.7952 | 829.99 | 1220
303.15 K, x2 = 0.8476 | 820.935 | 1207.6
303.15 K, x2 = 0.8928 | 813.143 | 1196.8
303.15 K, x2 = 0.9371 | 805.515 | 1186
